Entries after “also recorded” stand apart in the source; their conditions may differ. Read-outs that look alike come from different tables or passages of the source.
Test system: LdtMt2 constructs with single amino acid mutations (Tyr318, His336, His352 and Cys354)
Assay type: binding, M. tuberculosis

With C[C@@H](O)[C@H]1C(=O)N2C(C(=O)[O-])=C(SC3Cn4cnc[n+]4C3)[C@H](C)[C@H]12 (some centres unmarked) [biapenem] the “adduct formation with mutants” value (UPLC-MS, any of the mutant proteins) was “no adducts could be detected”.

C[C@@H](O)[C@H]1C(=O)N2C(C(=O)O)=C([C@H]3CCCO3)S[C@H]12 [faropenem] was tested, and the “ITC binding to mutants” value was “loss of binding” and the “adduct formation with mutants” value was “failed to produce adducts; also recorded: did produce stable adducts”.

In the case of C[C@@H](O)[C@H]1C(=O)N2C(C(=O)O)=C(SC3CN(C4=NCCS4)C3)[C@H](C)[C@H]12 [tebipenem], the “ITC binding to mutants” value is reported as “loss of binding” and the “adduct formation with mutants” value is reported as “failed to produce adducts; also recorded: did produce stable adducts”.

Reference: patent US11084833B2, “Antibacterial agents against D,D- and L,D-transpeptidases” (priority 2016, dated 2021)
